Numbered stars: 1 amine (or outer) side, 2 acyl side, 3 side chain; on linkers, the order of the positions; unused ones are H or OH. Bridge positions count the residues as written; N and C are the ends. Side chains are listed from the residue outwards. Peptide text beside a SMILES is read from it. * marks the point of attachment. C20 diacid = O=C(O)CCCCCCCCCCCCCCCCCCC(=O)*; γGlu = O=C(O)[C@H](CCC(=O)[*:2])N[*:1]
What was measured:
[1] = molecular target: T1, human amylin 3(a) receptor (human calcitonin receptor + RAMP-3) in BHK570 cells (Homo sapiens, UniProt O60896+P30988); assay: ASSAY (II)a functional assay, human amylin receptor (CRE luciferase); assay type: cell-based; conditions: for EC50: human amylin receptor functional potency, assay (II), read-out: hAmylin-R funct. EC50
T1 construct: expressed in transfected cells
How it was run: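 Read-out: CRE-driven luciferase luminescence, single photon counting, after 30 min at room temperature with LucLite. BHK cells expressed calcitonin receptor alone or with RAMP-3 (amylin 3(a)). Cells were stimulated 3 h at 37° C in DMEM, 10% FBS, 10 mM Hepes, pH 7.4.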

[2] = ASSAY (III) ThT fibrillation assay for physical stability; assay type: physicochemical
Text: Assay (III)—ThT Fibrillation Assays for the Assessment of Physical Stability of Protein Formulations Low physical stability of a polypeptide may lead to amyloid fibril formation, which is observed as well-ordered, thread-like macromolecular structures in the sample eventually resulting in gel formation. This has traditionally been measured by visual inspection of the sample. However, that kind of measurement is very subjective and depending on the observer. Therefore, the application of a small molecule indicator probe is much more advantageous. Thioflavin T (ThT) is such a probe and has a distinct fluorescence signature when binding to fibrils [Naiki et al. (1989) Anal. […] LeVine (1999) Methods. Enzymol. […], 274-284]. The time course for fibril formation can be described by a sigmoidal curve with the following expression [Nielsen et al. (2001) Biochemistry 40, 6036-6046]; […] Here, F is the ThT fluorescence at the time t. The constant t0 is the time needed to reach 50% of maximum fluorescence. […] Few of those intermediates nucleate to form a template onto which further intermediates may assembly and the fibrillation proceeds. The lag-time corresponds to the interval in which the critical mass of nucleus is built up and the apparent rate constant is the rate with which the fibril itself is formed. Sample Preparation Samples were prepared freshly before each assay. Each sample composition is described in each example. The pH of the sample was adjusted to the desired value using appropriate amounts of concentrated NaOH and HClO4 or HCl. Thioflavin T was added to the samples from a stock solution in H2O to a final concentration of 1 μM. Sample aliquots of 200 μl were placed in a 96 well microtiter plate (Packard OptiPlate™96, white polystyrene). Usually, four or eight replica of each sample (corresponding to one test condition) were placed in one column of wells. The plate was sealed with Scotch Pad (Qiagen). Incubation and Fluorescence Measurement Incubation at given temperature, shaking and measurement of the ThT fluorescence emission were done in a Fluoroskan Ascent FL fluorescence platereader or Varioskan platereader (Thermo Labsystems). The temperature was adjusted to 37° C. The orbital shaking was adjusted to 960 rpm with an amplitude of 1 mm in all the presented data. Fluorescence measurement was done using excitation through a 444 nm filter and measurement of emission through a 485 nm filter. Each run was initiated by incubating the plate at the assay temperature for 10 min. The plate was measured every 20 minutes for a desired period of time. Between each measurement, the plate was shaken and heated as described. Data Handling The measurement points were saved in Microsoft Excel format for further processing and curve drawing and fitting was performed using GraphPad Prism. The background emission from ThT in the absence of fibrils was negligible. The data points are typically a mean of four or eight samples and shown with standard deviation error bars. Only data obtained in the same experiment (i.e. samples on the same plate) are presented in the same graph ensuring a relative measure of fibrillation between experiments. The data set may be fitted to Eq. […] However, since full sigmodial curves in this case are not always achieved during the measurement time, the degree of fibrillation is expressed as ThT fluorescence tabulated as the mean of the samples and shown with the standard deviation at various time points. Measurement of Initial and Final Concentrations The polypeptide concentration in each of the tested formulations were measured both before application in the ThT fibrillation assay (“Initial”) and after completion of the ThT fibrillation (“After ThT assay”). Concentrations were determined by reverse HPLC methods using a pramlintide standard as a reference. Before measurement after completion 150 μl was collected from each of the replica and transferred to an Eppendorf tube. These were centrifuged at 30000 G for 40 mins. […]

[3] = hCTR funct. EC50 divided by hAmylin-R funct. EC50
[4] = hCTR funct. EC50 over hAmylin-R funct. EC50
[5] = human functional selectivity: hCTR funct. EC50 / hAmylin-R funct. EC50

T1 sequence (O60896 24-148): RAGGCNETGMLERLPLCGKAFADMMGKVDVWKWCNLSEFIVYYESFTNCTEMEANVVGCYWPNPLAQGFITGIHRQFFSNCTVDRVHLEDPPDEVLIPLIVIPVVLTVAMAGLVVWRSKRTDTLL
T1 sequence (P30988 25-474): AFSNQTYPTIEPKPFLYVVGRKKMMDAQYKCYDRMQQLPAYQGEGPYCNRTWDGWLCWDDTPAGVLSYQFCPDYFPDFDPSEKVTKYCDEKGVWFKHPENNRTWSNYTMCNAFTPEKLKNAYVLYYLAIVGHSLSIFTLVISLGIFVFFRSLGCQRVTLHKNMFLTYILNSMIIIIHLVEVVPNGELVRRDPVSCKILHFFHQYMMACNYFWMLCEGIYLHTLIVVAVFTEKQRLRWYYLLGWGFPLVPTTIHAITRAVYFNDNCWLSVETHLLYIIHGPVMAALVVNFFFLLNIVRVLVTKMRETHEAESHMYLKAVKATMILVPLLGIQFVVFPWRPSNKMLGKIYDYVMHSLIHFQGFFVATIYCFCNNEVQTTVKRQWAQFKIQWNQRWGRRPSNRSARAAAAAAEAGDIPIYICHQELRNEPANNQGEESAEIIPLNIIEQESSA

Ratio hCT/hAmylin funct. [1, 3] | Ratio hCT/hAmylin funct. [1, 4] | Ratio hCT/hAmylin funct. [1, 5] | ThT pH 4.0 lag time (h) [2] [h] | EC50 [1] [nM] | Ratio hCT/hAmylin funct. ([1]; hCTR funct. EC50 / hAmylin-R funct. EC50) | SMILES
22.6 | 22.6 | 22.6 | 28 |  |  | CC[C@H](C)[C@H](NC(=O)[C@H](C)NC(=O)CNC(=O)[C@H](Cc1ccccc1)NC(=O)[C@H](CC(N)=O)NC(=O)[C@@H]1CCCN1C(=O)[C@H](CO)NC(=O)[C@H](CO)NC(=O)[C@H](Cc1c[nH]cn1)NC(=O)[C@H](CCCNC(=N)N)NC(=O)[C@H](CC(C)C)NC(=O)[C@H](Cc1ccccc1)NC(=O)[C@H](CC(N)=O)NC(=O)[C@H](C)NC(=O)[C@H](CC(C)C)NC(=O)[C@H](CCCNC(=N)N)NC(=O)[C@H](CCC(N)=O)NC(=O)[C@@H](NC(=O)[C@H](C)NC(=O)[C@@H]1CSSC[C@H](NC(=O)[C@@H](N)CCCCNC(=O)CC[C@H](NC(=O)CCCCCCCCCCCCCCCCCCC(=O)O)C(=O)O)C(=O)N[C@@H](CC(N)=O)C(=O)N[C@@H]([C@@H](C)O)C(=O)N[C@@H](C)C(=O)N[C@@H]([C@@H](C)O)C(=O)N1)[C@@H](C)O)C(=O)N1CCC[C@H]1C(=O)N[C@@H](CO)C(=O)N[C@@H](CO)C(=O)N[C@H](C(=O)N[C@@H](CC(N)=O)C(=O)N[C@H](C(=O)NCC(=O)N[C@@H](CO)C(=O)N[C@@H](CCC(=O)O)C(=O)N[C@H](C(=O)N[C@@H](Cc1ccc(O)cc1)C(N)=O)[C@@H](C)O)C(C)C)[C@@H](C)O [Example 27]
24.9 | 24.9 | 24.9 | 45 | 0.146 |  | CC[C@H](C)[C@H](NC(=O)[C@H](C)NC(=O)CNC(=O)[C@H](Cc1ccccc1)NC(=O)[C@H](CC(N)=O)NC(=O)[C@@H]1CCCN1C(=O)[C@H](CO)NC(=O)[C@H](CO)NC(=O)[C@H](Cc1c[nH]cn1)NC(=O)[C@H](CCCNC(=N)N)NC(=O)[C@H](CC(C)C)NC(=O)[C@H](Cc1ccccc1)NC(=O)[C@H](CC(=O)O)NC(=O)[C@H](C)NC(=O)[C@H](CC(C)C)NC(=O)[C@H](CCCNC(=N)N)NC(=O)[C@H](CCC(N)=O)NC(=O)[C@@H](NC(=O)[C@H](C)NC(=O)[C@@H]1CSSC[C@H](NC(=O)[C@@H](N)CCCCNC(=O)CC[C@H](NC(=O)CCCCCCCCCCCCCCCCCCC(=O)O)C(=O)O)C(=O)N[C@@H](CC(N)=O)C(=O)N[C@@H]([C@@H](C)O)C(=O)N[C@@H](C)C(=O)N[C@@H]([C@@H](C)O)C(=O)N1)[C@@H](C)O)C(=O)N1CCC[C@H]1C(=O)N[C@@H](CO)C(=O)N[C@@H](CO)C(=O)N[C@H](C(=O)N[C@@H](CC(N)=O)C(=O)N[C@H](C(=O)NCC(=O)N1CCC[C@H]1C(=O)N[C@@H](CCCNC(=N)N)C(=O)N[C@H](C(=O)N[C@@H](Cc1ccc(O)cc1)C(N)=O)[C@@H](C)O)C(C)C)[C@@H](C)O [Example 129] (H-K([γGlu-C20 diacid])CNTATCATQRLADFLRHSSPNFGAIPSSTNVGPRTY-NH2; disulfide 2-7 (inferred); N-terminus assumed)
6.3 | 6.3 | 6.3 | 45 | 0.405 |  | CC[C@H](C)[C@H](NC(=O)[C@H](C)NC(=O)CNC(=O)[C@H](Cc1ccccc1)NC(=O)[C@H](CC(N)=O)NC(=O)[C@@H]1CCCN1C(=O)[C@H](CO)NC(=O)[C@H](CO)NC(=O)[C@H](Cc1c[nH]cn1)NC(=O)[C@H](CCCNC(=N)N)NC(=O)[C@H](CC(C)C)NC(=O)[C@H](Cc1ccccc1)NC(=O)[C@H](CCC(=O)O)NC(=O)[C@H](C)NC(=O)[C@H](CC(C)C)NC(=O)[C@H](CCCNC(=N)N)NC(=O)[C@H](CCC(N)=O)NC(=O)[C@@H](NC(=O)[C@H](C)NC(=O)[C@@H]1CSSC[C@H](NC(=O)[C@@H](N)CCCCNC(=O)CC[C@H](NC(=O)CCCCCCCCCCCCCCCCCCC(=O)O)C(=O)O)C(=O)N[C@@H](CC(N)=O)C(=O)N[C@@H]([C@@H](C)O)C(=O)N[C@@H](C)C(=O)N[C@@H]([C@@H](C)O)C(=O)N1)[C@@H](C)O)C(=O)N1CCC[C@H]1C(=O)N[C@@H](CO)C(=O)N[C@@H](CO)C(=O)N[C@H](C(=O)N[C@@H](CC(N)=O)C(=O)N[C@H](C(=O)NCC(=O)N[C@@H](Cc1c[nH]cn1)C(=O)N[C@@H](CCC(=O)O)C(=O)N[C@H](C(=O)N[C@@H](Cc1ccc(O)cc1)C(N)=O)[C@@H](C)O)C(C)C)[C@@H](C)O [Example 107] (H-K([γGlu-C20 diacid])CNTATCATQRLAEFLRHSSPNFGAIPSSTNVGHETY-NH2; disulfide 2-7 (inferred))
0.9 | 0.9 | 0.9 | 45 | 0.12 | 0.9 | CC[C@H](C)[C@H](NC(=O)[C@H](C)NC(=O)CNC(=O)[C@H](Cc1ccccc1)NC(=O)[C@H](CC(N)=O)NC(=O)[C@@H]1CCCN1C(=O)[C@H](CO)NC(=O)[C@H](CO)NC(=O)[C@H](Cc1c[nH]cn1)NC(=O)[C@H](CCCNC(=N)N)NC(=O)[C@H](CC(C)C)NC(=O)[C@H](Cc1ccccc1)NC(=O)[C@H](CCC(=O)O)NC(=O)[C@H](C)NC(=O)[C@H](CC(C)C)NC(=O)[C@H](CCCNC(=N)N)NC(=O)[C@H](CCC(N)=O)NC(=O)[C@@H](NC(=O)[C@H](C)NC(=O)[C@@H]1CSSC[C@H](NC(=O)[C@H](CCCCN)NC(=O)CC[C@H](NC(=O)CCCCCCCCCCCCCCCCCCC(=O)O)C(=O)O)C(=O)N[C@@H](CC(N)=O)C(=O)N[C@@H]([C@@H](C)O)C(=O)N[C@@H](C)C(=O)N[C@@H]([C@@H](C)O)C(=O)N1)[C@@H](C)O)C(=O)N1CCC[C@H]1C(=O)N[C@@H](CO)C(=O)N[C@@H](CO)C(=O)N[C@H](C(=O)N[C@@H](CC(N)=O)C(=O)N[C@H](C(=O)NCC(=O)N[C@@H](CO)C(=O)N[C@@H](CC(=O)O)C(=O)N[C@H](C(=O)N1CCC[C@H]1C(N)=O)[C@@H](C)O)C(C)C)[C@@H](C)O [Example 11] ({C20 diacid-γGlu}-KCNTATCATQRLAEFLRHSSPNFGAIPSSTNVGSDTP-NH2; disulfide 2-7 (inferred))
46.2 | 46.2 | 46.2 | 2 |  |  | CC[C@H](C)[C@H](NC(=O)[C@H](C)NC(=O)CNC(=O)[C@H](Cc1ccccc1)NC(=O)[C@H](CC(N)=O)NC(=O)[C@@H]1CCCN1C(=O)[C@H](CO)NC(=O)[C@H](CO)NC(=O)[C@H](Cc1c[nH]cn1)NC(=O)[C@H](CCCNC(=N)N)NC(=O)[C@H](CC(C)C)NC(=O)[C@H](Cc1ccccc1)NC(=O)[C@H](CC(N)=O)NC(=O)[C@H](C)NC(=O)[C@H](CC(C)C)NC(=O)[C@H](CCCNC(=N)N)NC(=O)[C@H](CCC(N)=O)NC(=O)[C@@H](NC(=O)[C@H](C)NC(=O)[C@@H]1CSSC[C@H](NC(=O)[C@@H](N)CCCCNC(=O)COCCOCCNC(=O)COCCOCCNC(=O)CC[C@H](NC(=O)CCCCCCCCCCCCCCCCCCC(=O)O)C(=O)O)C(=O)N[C@@H](CC(N)=O)C(=O)N[C@@H]([C@@H](C)O)C(=O)N[C@@H](C)C(=O)N[C@@H]([C@@H](C)O)C(=O)N1)[C@@H](C)O)C(=O)N1CCC[C@H]1C(=O)N[C@@H](CO)C(=O)N[C@@H](CO)C(=O)N[C@H](C(=O)N[C@@H](CC(N)=O)C(=O)N[C@H](C(=O)NCC(=O)N[C@@H](CO)C(=O)N[C@@H](CCC(=O)O)C(=O)N[C@H](C(=O)N[C@@H](Cc1ccc(O)cc1)C(N)=O)[C@@H](C)O)C(C)C)[C@@H](C)O [Example 25]

— patent US9023789B2, “Amylin analogs and pharmaceutical compositions thereof” (Novo Nordisk A/S, priority 2012, dated 2015)
